Measured values published in patent US6737383B1, “Herbicidal oxadiazolidines” (priority 1999, dated 2004).

Experiments:
surinam grass = assay: Test B pre/postemergence surinam grass; assay type: in vivo, Brachiaria decumbens
In short: (§1)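 Herbicidal effect was estimated by eye on a ten-point control scale after plants spent twelve to sixteen days in a greenhouse following soil or foliar treatment. Foliar sprays targeted plants at one to four leaves; all doses were formulated in a non-phytotoxic solvent with surfactant.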

sugar beet = assay: Test B pre/postemergence sugar beet; assay type: in vivo, Beta vulgaris
In short: as §1

morningglory = assay: Test B pre/postemergence morningglory; assay type: in vivo, Ipomoea hederacea
In short: as §1

duck salad = assay: Test B flood test duck salad; assay type: in vivo, Heteranthera limosa
In short: (§2)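 Each value is a visual injury score relative to controls, with 10 meaning complete control and 0 no effect. Evaluation took place twelve to sixteen days after the 2-leaf-stage plants were treated and kept in the greenhouse.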

rice = assay: Test B flood test rice; assay type: in vivo, Oryza sativa
In short: as §2

rape = assay: Test B pre/postemergence rape; assay type: in vivo, Brassica napus
In short: as §1

bamyardgrass = assay: Test B flood test barnyardgrass; assay type: in vivo, Echinochloa crus-galli
In short: as §2

bedstraw = assay: Test B pre/postemergence bedstraw; assay type: in vivo, Galium aparine
In short: as §1

velvetleaf = assay: Test B pre/postemergence velvetleaf; assay type: in vivo, Abutilon theophrasti
In short: as §1

corn = assay: Test B pre/postemergence corn; assay type: in vivo, Zea mays
In short: as §1

cocklebur = assay: Test B pre/postemergence cocklebur; assay type: in vivo, Xanthium strumarium
In short: as §1

soybean = assay: Test B pre/postemergence soybean; assay type: in vivo, Glycine max
In short: as §1

smallflower flatsedge = assay: Test B flood test smallflower flatsedge; assay type: in vivo, Cyperus difformis
In short: as §2

crabgrass = assay: Test B pre/postemergence crabgrass; assay type: in vivo, Digitaria sanguinalis
In short: as §1

wild oat = assay: Test B pre/postemergence wild oat; assay type: in vivo, Avena fatua
In short: as §1

pigweed = assay: Test B pre/postemergence pigweed; assay type: in vivo, Amaranthus retroflexus
In short: as §1

[1] = Postemergence, Rate 62 g/ha, scale 0 to 10, 0 is no effect, 10 is complete control
[2] = Postemergence, Rate 250 g/ha, scale 0 to 10, 0 no effect, 10 complete control
[3] = Preemergence, Rate 31 g/ha, visual rating, scale 0 to 10 (0 no effect, 10 complete control)
[4] = Preemergence, Rate 62 g/ha, scale 0 to 10, 0 is no effect, 10 is complete control
[5] = Preemergence, Rate 125 g/ha, scale 0 to 10 (0 no effect, 10 complete control)
[6] = Preemergence, Rate 250 g/ha, scale of 0 to 10 where 0 is no effect and 10 is complete control
[7] = Rate 31 g/ha, Postemergence, scale 0 to 10
[8] = Rate 125 g/ha, Postemergence, scale 0 to 10, 0 no effect, 10 complete control
[9] = Rate 125 g/ha, Postemergence section (flood test species), scale 0 to 10, 0 no effect, 10 complete control
[10] = Rate 500 g/ha, Postemergence section of Table B, 0 to 10 scale (0 no effect, 10 complete control)
[11] = flood test, listed under Postemergence, Rate 250 g/ha, scale 0 to 10, 0 no effect, 10 complete control

COc1ccc(-n2c(=O)on(C(=O)N(c3ccc(F)cc3F)C(C)C)c2=O)c(OC)c1 [Compound 32]
0: B. signalgrass plant response rating (surinam grass; [1]) | B. signalgrass plant response rating (surinam grass; [2]) | B. signalgrass plant response rating (surinam grass; [3]) | Plant response rating, B. signalgrass (surinam grass; [4]) | Plant response rating, B. signalgrass (surinam grass; [5]) | B. signalgrass plant response rating (surinam grass; [7]) | B. signalgrass plant response rating (surinam grass; [8]) | Sugarbeets plant response rating (sugar beet; [1]) | Sugarbeets plant response rating (sugar beet; [2]) | Sugarbeets plant response rating (sugar beet; [3]) | Plant response rating, Sugarbeets (sugar beet; [4]) | Plant response rating, Sugarbeets (sugar beet; [5]) | Plant response rating, Sugarbeets (sugar beet; [6]) | Sugarbeets plant response rating (sugar beet; [8]) | Morningglory plant response rating (morningglory; [3]) | Plant response rating, Morningglory (morningglory; [4]) | Plant response rating, Morningglory (morningglory; [5]) | Ducksalad plant response rating (duck salad; [1]) | Ducksalad plant response rating (duck salad; [9]) | Ducksalad plant response rating (duck salad; [11]) | Rice plant response rating (rice; [1]) | Rice plant response rating (rice; [9]) | Rice plant response rating (rice; [10]) | Rice plant response rating (rice; [11]) | Rape plant response rating (rape; [1]) | Rape plant response rating (rape; [2]) | Rape plant response rating (rape; [3]) | Plant response rating, Rape (rape; [4]) | Plant response rating, Rape (rape; [5]) | Plant response rating, Rape (rape; [6]) | Rape plant response rating (rape; [7]) | Rape plant response rating (rape; [8]) | Barnyardgrass plant response rating (bamyardgrass; [1]) | Barnyardgrass plant response rating (bamyardgrass; [9]) | Bedstraw plant response rating (bedstraw; [1]) | Bedstraw plant response rating (bedstraw; [2]) | Bedstraw plant response rating (bedstraw; [3]) | Plant response rating, Bedstraw (bedstraw; [4]) | Plant response rating, Bedstraw (bedstraw; [5]) | Plant response rating, Bedstraw (bedstraw; [6]) | Bedstraw plant response rating (bedstraw; [7]) | Bedstraw plant response rating (bedstraw; [8]) | Velvetleaf plant response rating (velvetleaf; [1]) | Velvetleaf plant response rating (velvetleaf; [2]) | Velvetleaf plant response rating (velvetleaf; [3]) | Plant response rating, Velvetleaf (velvetleaf; [4]) | Plant response rating, Velvetleaf (velvetleaf; [5]) | Plant response rating, Velvetleaf (velvetleaf; [6]) | Velvetleaf plant response rating (velvetleaf; [8]) | Corn plant response rating (corn; [1]) | Corn plant response rating (corn; [2]) | Corn plant response rating (corn; [3]) | Plant response rating, Corn (corn; [4]) | Plant response rating, Corn (corn; [5]) | Plant response rating, Corn (corn; [6]) | Corn plant response rating (corn; [7]) | Corn plant response rating (corn; [8]) | Cocklebur plant response rating (cocklebur; [1]) | Cocklebur plant response rating (cocklebur; [2]) | Cocklebur plant response rating (cocklebur; [3]) | Plant response rating, Cocklebur (cocklebur; [4]) | Plant response rating, Cocklebur (cocklebur; [5]) | Plant response rating, Cocklebur (cocklebur; [6]) | Cocklebur plant response rating (cocklebur; [7]) | Cocklebur plant response rating (cocklebur; [8]) | Soybean plant response rating (soybean; [3]) | Plant response rating, Soybean (soybean; [4]) | Plant response rating, Soybean (soybean; [5]) | Plant response rating, Soybean (soybean; [6]) | S. Flatsedge plant response rating (smallflower flatsedge; [1]) | S. Flatsedge plant response rating (smallflower flatsedge; [9]) | Crabgrass plant response rating (crabgrass; [1]) | Crabgrass plant response rating (crabgrass; [3]) | Crabgrass plant response rating (crabgrass; [7]) | Wild oats plant response rating (wild oat; [1]) | Wild oats plant response rating (wild oat; [2]) | Wild oats plant response rating (wild oat; [3]) | Plant response rating, Wild oats (wild oat; [5]) | Wild oats plant response rating (wild oat; [8]) | Redroot pigweed plant response rating (pigweed; [1]) | Redroot pigweed plant response rating (pigweed; [2]) | Redroot pigweed plant response rating (pigweed; [3]) | Plant response rating, Redroot pigweed (pigweed; [4]) | Plant response rating, Redroot pigweed (pigweed; [5]) | Plant response rating, Redroot pigweed (pigweed; [6]) | Redroot pigweed plant response rating (pigweed; [7]) | Redroot pigweed plant response rating (pigweed; [8])
8: Morningglory plant response rating (morningglory; [2]) | Barnyardgrass plant response rating (bamyardgrass; [11])
9: Barnyardgrass plant response rating (bamyardgrass; [10]) | Plant response rating, Crabgrass (crabgrass; [6])
6: Morningglory plant response rating (morningglory; [1]) | Morningglory plant response rating (morningglory; [7]) | Plant response rating, Crabgrass (crabgrass; [5])
7: Morningglory plant response rating (morningglory; [8])
2: Plant response rating, B. signalgrass (surinam grass; [6]) | Plant response rating, Morningglory (morningglory; [6]) | Ducksalad plant response rating (duck salad; [10]) | Soybean plant response rating (soybean; [1]) | Soybean plant response rating (soybean; [2]) | Soybean plant response rating (soybean; [8]) | S. Flatsedge plant response rating (smallflower flatsedge; [11]) | Crabgrass plant response rating (crabgrass; [8]) | Plant response rating, Wild oats (wild oat; [6])
3: Crabgrass plant response rating (crabgrass; [2])
4: Plant response rating, Crabgrass (crabgrass; [4])
